Measurements from patent US20170157143A1, “NORPREGNANE DERIVATIVES FOR THE RISK REDUCTION OF BREAST CANCER” (Helix Twelve Pharmaceuticals Corporation, Inc., priority 2015, published 2017).

Experiments:
breast carcinoma = assay: HLX-801 prophylactic therapy against breast cancer in at-risk subject groups compared to tamoxifen; assay type: in vivo, human
Procedure: Table 1: Exemplary effect of HLX-801 prophylactic therapy against breast cancer cells in at-risk subject groups compared to Tamoxifen (“TAM”) 1 mg.

[1] = Side effect profile of HLX-801; settings: in vivo
Description: The compounds are associated with the absence of the side effects that currently limit the adoption of the currently available tamoxifen and aromatase inhibition approaches by at risk individuals.

breast cancer = settings: DCIS patients; cited from earlier work

## CCN(CC)Cc1ccc(OCC[C@H]2CCC3C4[C@H](C)Cc5cc(O)ccc5[C@H]4CC[C@@]32C)c(OC)c1 (stereo partly drawn) [HLX-801, (7α)-21-[4-[(diethylamino)methyl]-2-methoxyphenoxy]-7-methyl-19-norpregna-1,3,5(10)-trien-3-ol 2-hydroxy-1,2,3-propanetricarboxylate]
Breast carcinoma; HLX-801 1 mg, patients group 7/17
  No. of subjects developing breast carcinoma: 3
Breast carcinoma; HLX-801 1 mg, patients group 7/21
  No. of subjects developing breast carcinoma: 2
Breast carcinoma; HLX-801 1 mg, patients group 7/24
  No. of subjects developing breast carcinoma: 3
Breast carcinoma; HLX-801 5 mg, patients group 7/17
  No. of subjects developing breast carcinoma: 1
Breast carcinoma; HLX-801 5 mg, patients group 7/21
  No. of subjects developing breast carcinoma: 2
Breast carcinoma; HLX-801 5 mg, patients group 7/24
  No. of subjects developing breast carcinoma: 2
Breast carcinoma; HLX-801 10 mg, patients group 7/17
  No. of subjects developing breast carcinoma: 1
Breast carcinoma; HLX-801 10 mg, patients group 7/21
  No. of subjects developing breast carcinoma: 1
Breast carcinoma; HLX-801 10 mg, patients group 7/24
  No. of subjects developing breast carcinoma: 1
Breast carcinoma; HLX-801 20 mg, patients group 7/17
  No. of subjects developing breast carcinoma: 1
Breast carcinoma; HLX-801 20 mg, patients group 7/21
  No. of subjects developing breast carcinoma: 1
Breast carcinoma; HLX-801 20 mg, patients group 7/24
  No. of subjects developing breast carcinoma: 1
Breast carcinoma; HLX-801 40 mg, patients group 7/17
  No. of subjects developing breast carcinoma: 1
Breast carcinoma; HLX-801 40 mg, patients group 7/21
  No. of subjects developing breast carcinoma: 1
Breast carcinoma; HLX-801 40 mg, patients group 7/24
  No. of subjects developing breast carcinoma: 1
Breast carcinoma; HLX-801 80 mg, patients group 7/17
  No. of subjects developing breast carcinoma: 1
Breast carcinoma; HLX-801 80 mg, patients group 7/21
  No. of subjects developing breast carcinoma: 1
Breast carcinoma; HLX-801 80 mg, patients group 7/24
  No. of subjects developing breast carcinoma: 1
[1]
  bone loss (long-term risk of fractures): no evidence of bone loss
  muscle aches: no reports of muscle aches
  uterine thickening (indicator of risk for treatment-induced uterine cancer): no evidence of uterine thickening
  venous thrombembolism (indicator of risk for stroke): no evidence of venous thrombembolism

## CC/C(=C(\c1ccccc1)c1ccc(OCCN(C)C)cc1)c1ccccc1 [TAM, Tamoxifen, reference compound]
Breast carcinoma; TAM 1 mg, patients group 7/17
  No. of subjects developing breast carcinoma: 12
Breast carcinoma; TAM 1 mg, patients group 7/21
  No. of subjects developing breast carcinoma: 11
Breast carcinoma; TAM 1 mg, patients group 7/24 (# of cohorts/# of subjects per cohort)
  No. of subjects developing breast carcinoma: 12
Breast cancer
  reduction of the risk to progression to breast cancer: 30%
